Measured values: article PMC4105752 (RNA, 2014)

Target: T1, TbEIF4E5 (TbE5) (Trypanosoma brucei, UniProt Q38B99)
T1 sequence (Q38B99 1-195): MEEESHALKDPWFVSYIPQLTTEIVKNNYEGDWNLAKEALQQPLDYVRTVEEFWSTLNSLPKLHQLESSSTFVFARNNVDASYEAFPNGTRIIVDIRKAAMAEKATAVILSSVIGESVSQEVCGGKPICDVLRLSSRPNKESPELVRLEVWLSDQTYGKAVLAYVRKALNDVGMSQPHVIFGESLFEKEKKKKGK
Assay: intrinsic protein fluorescence quenching titration
Type: binding

Row | Molecule | Kd [µM] | Kas (50 mM HEPES/KOH pH 7.2, 100 mM KCl, 0.5 mM EDTA, 2 mM DTT, 20 °C)
1 | C[n+]1cn([C@@H]2O[C@H](COP(=O)(O)OP(=O)(O)OP(=O)(O)OC[C@H]3O[C@@H](n4cnc5c(N)ncnc54)[C@H](O)[C@@H]3O)[C@@H](O)[C@H]2O)c2nc(N)[nH]c(=O)c21 [m^7GpppA] | 8.33 | 
2 | cap 4 |  | 0.55 ± 0.01
3 | C[n+]1cn([C@@H]2O[C@H](COP(=O)(O)OP(=O)(O)OP(=O)(O)O)[C@@H](O)[C@H]2O)c2nc(N)[nH]c(=O)c21 [m^7GTP] | 1.54 | 
4 | Nc1nc2c(ncn2[C@@H]2O[C@H](COP(=O)(O)OP(=O)(O)OP(=O)(O)O)[C@@H](O)[C@H]2O)c(=O)[nH]1 [GTP] | ~27 | 
